Each structure is given as a SMILES string.

In experiment [1] the test system is MG-63 and Saos-2 cell lines. The experiment in a line: Alizarin Red S biomineralization assay: phosphate source comparison, titration, ascorbic acid (FIG. 1A, 1C, 1E-G). The experiment is classed as cell-based, human. The conditions noted are these: for dose dependence of biomineralization (titration assays): FIG. 1E-G; for biomineralization with the substance as organic phosphate source: substituted for βGP, 2 mM, with ALP, FIG. 1B,C. As to the method:
(§1) Biomineralization assays and Alizarin Red S staining: All human and mouse cell lines and human peripheral blood mononuclear cells (MNCs) were maintained in MEMα/10% FBS with penicillin/streptomycin and glutamine in a 37° C. humidified incubator with 5% CO2. […] The medium was replaced after 4 days. Alizarin Red S staining was performed at room temperature by removing the culture medium, washing the cells twice with 1×PBS (pH 7.4), fixing the cells in 10% neutral buffered formalin (Richard-Allan Scientific, Kalamazoo, Mich., USA) for 30 min, rinsing twice with Milli-Q water, staining with Alizarin Red S for 30 min, and destaining twice in Milli-Q water. A ZEISS inverted fluorescence/brightfield microscope equipped with an Infinity 3 digital camera and software system was used for imaging.

The next experiment deals with MG-63 cell line. Put plainly: Alizarin Red S (ARS) biomineralization assay in MG-63. It is filed as cell-based, human. The conditions noted are these: MEMα/10% FBS plus the supplement only, no ALP added, 7 days. As to the method: as §1
A further experiment concerns Saos-2 cell line. Put plainly: Alizarin Red S (ARS) biomineralization assay in Saos-2. The conditions noted are these: for biomineralization (Alizarin Red S staining): MEMα/10% FBS plus the supplement only, no ALP added, 7 days. It is filed as cell-based, human. Here is the method: as §1
Experiment [2] has as its system human blood mononuclear cells (MNCs). Put plainly: Alizarin Red S biomineralization assay in human blood mononuclear cells. The experiment is classed as cell-based. The conditions noted are these: MEMα/10% FBS with αGP alone or CIP alone (the other missing), 7 days. Here is the method: as §1
Coating cell culture plate with Collagen Type I, rat tail for mineralization assays: To coat a 48-well plate with Collagen Type I at 5 μg/cm^2, the stock solution was diluted to 25 μg/mL in 17.5 mM of acetic acid and aliquoted […] into each well. After incubating at room temperature for one hour, the Collagen Type I solution was removed. Each well was rinsed with 1×PBS (pH 7.4) and air-dried at room temperature. Human blood MNCs were suspended in the conditioned media and distributed into each well (1×10^5 cell/well) prior to a 7-day incubation. […]

As to `[Ca+2]` [Ca^2+, calcium ions], the “dose dependence of biomineralization (titration assays)” value in experiment [1] is listed as “depended on the doses”.
On to `O=P(O)(O)OCC(O)CO` (stereo not drawn) [NSC 9231, glycerophosphoric acid], for which, in experiment [1], the “biomineralization with the substance as organic phosphate source” value was “did not occur”.
`O=C1O[C@H]([C@@H](O)CO)C(O)=C1O` [Vit. C, Ascorbic acid]: the “need of ascorbic acid for biomineralization” value in experiment [1] (MEMα with or without ascorbic acid, FIG. 1A and FIG. 8) was “unnecessary or even deleterious”. Besides, the “biomineralization (Alizarin Red S staining)” value in the experiment on MG-63 cell line and in the experiment with Saos-2 cell line was “No mineralization” each time.
Consider `NCCC(O)(P(=O)(O)O)P(=O)(O)O` [pamidronate], for which the “biomineralization with the substance as organic phosphate source” value in experiment [1] is “did not occur”.
For the compound `O.O=P([O-])([O-])OCC(O)CO.[Na+].[Na+]` (stereo not drawn) [αGP, Disodium α-glycerophosphate hydrate], the “dose dependence of biomineralization (titration assays)” value in experiment [1] was “depended on the doses”. Further, the “relative efficiency of phosphoester salts in eliciting biomineralization” value in experiment [1] (compared to βGP and PEP, FIG. 1C) was “most efficient”. For the same compound, the “incubation time until biomineralization occurred at cytoplasmic membrane and cytosol” value in the experiment with Saos-2 cell line (MEMα/10% FBS with 2 mM αGP) is given as not above 24 h. Moreover, the “biomineralization (Alizarin Red S staining)” value in experiment [2] is given as “did not occur”.
As for `O=P([O-])([O-])OC(CO)CO.[Na+].[Na+]` [βGP, disodium β-glycerophosphate], the “biomineralization (Alizarin Red S staining)” value with MG-63 cell line is on record as “could not”; in the experiment with Saos-2 cell line, “could mineralize”.

Source of the values: patent US20230220346A1, “BIOLOGICALLY SYNTHESIZED HYDROXYAPATITE FOR BONE REGENERATION AND TISSUE ENGINEERING” (BIOVENTURES, LLC, priority 2019, published 2023).
